For the test, the system named is HIV-1 (H9IIIB strain). Kind of test: Cell-Based HIV Infection Assay Using a Reporter (MT4-GFP cells). To be noted: Human immunodeficiency virus 1, inflection point (IP) of viral growth inhibition; MT4-GFP cells infected with HIV-1 H9IIIB; 50% normal human serum; mean of at least two independent experiments; read-out: Cell Based IP (50% NHS). Summed up: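 Inflection point from a 4-parameter curve of % viral growth inhibition, normalised to DMSO and triple-drug controls, using the 48 h/24 h ratio of GFP-positive cells (R0). MT4-GFP cells pre-infected 24 h with HIV-1 H9IIIB at low MOI; compounds tested in 50% normal human serum, 0.4% DMSO; mean of ≥2 experiments.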

`CCC(CC)[C@H](c1ccc(Cl)cc1)[C@H](N)C(=O)Nc1cccc(F)c1CCC1CNC2CCCS(=O)(=O)N1C2` (stereo partly drawn) [Example 70, (βR)-4-chloro-N-{2-[2-(2,2-dioxido-2-thia-1,7-diazabicyclo[4.3.1]dec-9-yl)ethyl]-3-fluorophenyl}-β-(1-ethylpropyl)-L-phenylalaninamide]: the EC50 was found to be 49 nM. As to `CCC(CC)[C@H](c1ccc(Cl)cc1)[C@H](NC(=O)OC)C(=O)Nc1cccc(F)c1CCC1CNC2CCCS(=O)(=O)N1C2` (stereo partly drawn) [Example 71, methyl [(1S,2R)-2-(4-chlorophenyl)-1-({2-[2-(2,2-dioxido-2-thia-1,7-diazabicyclo[4.3.1]dec-9-yl)ethyl]-3-fluorophenyl}carbamoyl)-3-ethylpentyl]carbamate], the EC50 is 41 nM. For `N[C@H](C(=O)Nc1cccc(F)c1CCC1CNC2CCCS(=O)(=O)N1C2)[C@H](c1cncc(Cl)c1)c1ccc(Cl)c(F)c1` (stereo partly drawn) [Example 72, (βS)-4-chloro-β-(5-chloropyridin-3-yl)-N-{2-[2-(2,2-dioxido-2-thia-1,7-diazabicyclo[4.3.1]dec-9-yl)ethyl]-3-fluorophenyl}-3-fluoro-L-phenylalaninamide] the value was 5.1 nM; for `COC(=O)N[C@H](C(=O)Nc1cccc(F)c1CCC1CNC2CCCS(=O)(=O)N1C2)[C@H](c1cncc(Cl)c1)c1ccc(Cl)c(F)c1` (stereo partly drawn) [Example 73, methyl [(1S,2S)-2-(4-chloro-3-fluorophenyl)-2-(5-chloropyridin-3-yl)-1-({2-[2-(2,2-dioxido-2-thia-1,7-diazabicyclo[4.3.1]dec-9-yl)ethyl]-3-fluorophenyl}carbamoyl)ethyl]carbamate], 18 nM. In the case of `N[C@H](C(=O)Nc1cccc(F)c1CCC1CNC2CCCS(=O)(=O)N1C2)[C@H](CCC1CCOCC1)c1ccc(Cl)c(F)c1` (stereo partly drawn) [Example 74, (βR)-4-chloro-N-{2-[2-(2,2-dioxido-2-thia-1,7-diazabicyclo[4.3.1]dec-9-yl)ethyl]-3-fluorophenyl}-3-fluoro-β-[2-(tetrahydro-2H-pyran-4-yl)ethyl]-L-phenylalaninamide], the EC50 was determined as 151 nM. For `O=C(C[C@@H](c1ccc(Cl)c(F)c1)N1CCOCC1)N[C@H]1CCC[C@@H]1CC[C@H]1CN[C@@H]2CCCS(=O)(=O)N1C2` [Example 75, (3S)-3-(4-chloro-3-fluorophenyl)-N-[(1S,2R)-2-{2-[(6R,9S)-2,2-dioxido-2-thia-1,7-diazabicyclo[4.3.1]dec-9-yl]ethyl}cyclopentyl]-3-morpholin-4-ylpropanamide], the EC50 was 110 nM. To `N[C@H](C(=O)N[C@H]1CCC[C@@H]1CC[C@H]1CN[C@@H]2CCCS(=O)(=O)N1C2)[C@H](c1cncc(C(F)(F)F)c1)c1ccc(Cl)c(F)c1` [Example 76, (βS)-4-chloro-N-[(1S,2R)-2-{2-[(6R,9S)-2,2-dioxido-2-thia-1,7-diazabicyclo[4.3.1]dec-9-yl]ethyl}cyclopentyl]-3-fluoro-β-[5-(trifluoromethyl)pyridin-3-yl]-L-phenylalaninamide] belongs 30 nM. As for `COC(=O)N[C@H](C(=O)N[C@H]1CCC[C@@H]1CC[C@H]1CN[C@@H]2CCCS(=O)(=O)N1C2)[C@H](c1cncc(F)c1)c1ccc(Cl)c(F)c1` [Example 77, methyl [(1S,2S)-2-(4-chloro-3-fluorophenyl)-1-{[(1S,2R)-2-{2-[(6R,9S)-2,2-dioxido-2-thia-1,7-diazabicyclo[4.3.1]dec-9-yl]ethyl}cyclopentyl]carbamoyl}-2-(5-fluoropyridin-3-yl)ethyl]carbamate], the EC50 was 57 nM. For `COC(=O)N[C@H](C(=O)N[C@H]1CCC[C@@H]1CC[C@H]1CN[C@@H]2CCCS(=O)(=O)N1C2)[C@@H](c1ccc(Cl)cc1)c1ccc(OC)nc1` [Example 78, methyl [(1S,2S)-2-(4-chlorophenyl)-1-{[(1S,2R)-2-{2-[(1S,2S)-2,2-dioxido-2-thia-1,7-diazabicyclo[4.3.1]dec-9-yl]ethyl}cyclopentyl]carbamoyl}-2-(6-methoxypyridin-3-yl)ethyl]carbamate] the value was 38 nM; for `COC(=O)N[C@H](C(=O)N[C@H]1CCC[C@@H]1CC[C@H]1CN[C@@H]2CCCS(=O)(=O)N1C2)[C@H](c1cncc(C(F)(F)F)c1)c1ccc(Cl)c(F)c1` [Example 79, methyl {(1S,2S)-2-(4-chloro-3-fluorophenyl)-1-{[(1S,2R)-2-{2-[(6R,9S)-2,2-dioxido-2-thia-1,7-diazabicyclo[4.3.1]dec-9-yl]ethyl}cyclopentyl]carbamoyl}-2-[5-(trifluoromethyl)pyridin-3-yl]ethyl}carbamate], 31 nM. Consider `COc1ccc([C@H](c2ccc(Cl)cc2)[C@H](N)C(=O)N[C@H]2CCC[C@@H]2CC[C@H]2CN[C@@H]3CCCS(=O)(=O)N2C3)cn1` [Example 80, (βS)-4-chloro-N-[(1S,2R)-2-{2-[(6R,9S)-2,2-dioxido-2-thia-1,7-diazabicyclo[4.3.1]dec-9-yl]ethyl}cyclopentyl]-β-(6-methoxypyridin-3-yl)-L-phenylalaninamide], for which the EC50 amounted to 71 nM. For `N[C@H](C(=O)N[C@H]1CCC[C@@H]1CC[C@H]1CN[C@@H]2CCCS(=O)(=O)N1C2)[C@H](c1cncc(F)c1)c1ccc(Cl)c(F)c1` [Example 81, (βS)-4-chloro-N-[(1S,2R)-2-{2-[(6R,9S)-2,2-dioxido-2-thia-1,7-diazabicyclo[4.3.1]dec-9-yl]ethyl}cyclopentyl]-3-fluoro-β-(5-fluoropyridin-3-yl)-L-phenylalaninamide] the value was 68 nM. For the compound `COC(=O)N[C@H](C(=O)N[C@H]1CCC[C@@H]1CC[C@H]1CN[C@@H]2CCCS(=O)(=O)N1C2)[C@@H](c1ccccc1)c1ccc(OC)nc1` [Example 82, methyl {(1S)-2-{[(1S,2R)-2-{2-[(6R,9S)-2,2-dioxido-2-thia-1,7-diazabicyclo[4.3.1]dec-9-yl]ethyl}cyclopentyl]amino}-1-[(S)-(6-methoxypyridin-3-yl)(phenyl)methyl]-2-oxoethyl}carbamate], the EC50 is 160 nM.

With `COC(=O)N[C@H](C(=O)Nc1cccc(F)c1CC[C@H]1CN[C@@H]2CCCS(=O)(=O)N1C2)C(c1ccc(F)cc1)[C@H]1C[C@@H](C)O[C@@H](C)C1` (stereo partly drawn) [Example 83, methyl [(1S)-2-[(2R,4r,6S)-2,6-dimethyltetrahydro-2H-pyran-4-yl]-1-[(2-{2-[(6R,9S)-2,2-dioxido-2-thia-1,7-diazabicyclo[4.3.1]dec-9-yl]ethyl}-3-fluorophenyl)carbamoyl]-2-(4-fluorophenyl)ethyl]carbamate], the EC50 was determined as 8.2 nM. Consider `N[C@H](C(=O)Nc1cccc(F)c1OCC1CNC2CCCS(=O)(=O)N1C2)[C@@H](c1ccc(F)cc1)c1cc(F)cc(F)c1` (stereo partly drawn) [Example 84, (βS)-β-(3,5-difluorophenyl)-N-{2-[(2,2-dioxido-2-thia-1,7-diazabicyclo[4.3.1]dec-9-yl)methoxy]-3-fluorophenyl}-4-fluoro-L-phenylalaninamide], for which the EC50 was found to be 210 nM. For `COC(=O)N[C@H](C(=O)Nc1cccc(F)c1OCC1CNC2CCCS(=O)(=O)N1C2)[C@@H](c1ccc(F)cc1)c1cc(F)cc(F)c1` (stereo partly drawn) [Example 85, methyl [(1S,2S)-2-(3,5-difluorophenyl)-1-({2-[(2,2-dioxido-2-thia-1,7-diazabicyclo[4.3.1]dec-9-yl)methoxy]-3-fluorophenyl}carbamoyl)-2-(4-fluorophenyl)ethyl]carbamate], the EC50 is 150 nM.

Consider `N[C@H](C(=O)Nc1cccc(F)c1CCC1CNC2CCCS(=O)(=O)N1C2)[C@@H](c1ccc(F)cc1)C12CC(C1)C2` (stereo partly drawn) [Example 86, (βR)-β-bicyclo[1.1.1]pent-1-yl-N-{2-[2-(2,2-dioxido-2-thia-1,7-diazabicyclo[4.3.1]dec-9-yl)ethyl]-3-fluorophenyl}-4-fluoro-L-phenylalaninamide], for which the EC50 was found to be 340 nM. To `COC(=O)N[C@H](C(=O)Nc1cccc(F)c1CCC1CNC2CCCS(=O)(=O)N1C2)[C@@H](c1ccc(F)cc1)C12CC(C1)C2` (stereo partly drawn) [Example 87, methyl [(1S,2R)-2-bicyclo[1.1.1]pent-1-yl-1-({2-[2-(2,2-dioxido-2-thia-1,7-diazabicyclo[4.3.1]dec-9-yl)ethyl]-3-fluorophenyl}carbamoyl)-2-(4-fluorophenyl)ethyl]carbamate] belongs 130 nM; to `CO[C@H](C(C)C)[C@H](c1ccc(F)cc1)[C@H](N)C(=O)Nc1cccc(F)c1CCC1CN[C@@H]2CCCS(=O)(=O)N1C2` (stereo partly drawn) [Example 88, (βR)-N-(2-{2-[(6R)-2,2-dioxido-2-thia-1,7-diazabicyclo[4.3.1]dec-9-yl]ethyl)-3-fluorophenyl)-4-fluoro-β-[(1R)-1-methoxy-2-methylpropyl]-L-phenylalaninamide], 91 nM; to `N[C@H](C(=O)Nc1cccc(F)c1CCC1CNC2CCCS(=O)(=O)N1C2)[C@@H](c1ccc(Cl)cc1)c1ccc(C(F)(F)F)nc1` (stereo partly drawn) [Example 89, (βS)-4-chloro-N-{2-[2-(2,2-dioxido-2-thia-1,7-diazabicyclo[4.3.1]dec-9-yl)ethyl]-3-fluorophenyl}-β-[6-(trifluoromethyl)pyridin-3-yl]-L-phenylalaninamide], 5.1 nM.

`COC(=O)N[C@H](C(=O)Nc1cccc(F)c1CCC1CN[C@@H]2CCCS(=O)(=O)N1C2)[C@H](CC(C)C)c1ccc(F)cc1` (stereo partly drawn) [Example 90, methyl [(1S,2R)-1-[(2-{2-[(6R)-2,2-dioxido-2-thia-1,7-diazabicyclo[4.3.1]dec-9-yl]ethyl}-3-fluorophenyl)carbamoyl]-2-(4-fluorophenyl)-4-methylpcnlyl]carbamate]: the EC50 came to 23 nM. `N[C@H](C(=O)Nc1c(F)ccc(F)c1CC[C@H]1CN[C@@H]2CCCS(=O)(=O)N1C2)[C@@H](c1ccc(Cl)cc1)C1CCOCC1` [Example 91, (βR)-4-chloro-N-(2-{2-[(6R,9S)-2,2-dioxido-2-thia-1,7-diazabicyclo[4.3.1]dec-9-yl]ethyl}-3,6-difluorophenyl)-β-(tetrahydro-2H-pyran-4-yl)-L-phenylalaninamide]: the EC50 came out at 22 nM.

(Values after patent publication US10138255B2, “Piperazine derivatives as HIV protease inhibitors” (Merck Sharp & Dohme Corp., priority 2014, dated 2018).)
